Assays:
breast line MDA468 = test: In vitro cell culture growth assay (MTS), MDA468; format: cell-based, human; details: MDA468 cells, three days after drug treatment
How it was run: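 Growth measured as percent of same-plate vehicle control by MTS metabolic dye conversion (A490). Breast MDA468 and prostate LNCap cells, plated a day ahead, were exposed to compounds for 3 days.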

PI3K = PI3K (Homo sapiens, UniProt P42336); test: Fluorescence polarization assay for PI3K; format: biochemical; details: PI3Kα; read-out: PI3Kα IC50;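 further: PI3K kinase reaction on PIP2 with ATP, 30-60 min, product sensed by GST-GRP with red probe in fluorescence polarization (mP), controls without enzyme and at zero time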
prostate line LNCap = test: In vitro cell culture growth assay (MTS), LNCap; format: cell-based, human; details: LNCap cells, three days after drug treatment;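 further: viable cell density read by absorbance at 490 nm, growth expressed as percent of vehicle-treated cells on the same plate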

Chain of PI3K (P42336 whole entry): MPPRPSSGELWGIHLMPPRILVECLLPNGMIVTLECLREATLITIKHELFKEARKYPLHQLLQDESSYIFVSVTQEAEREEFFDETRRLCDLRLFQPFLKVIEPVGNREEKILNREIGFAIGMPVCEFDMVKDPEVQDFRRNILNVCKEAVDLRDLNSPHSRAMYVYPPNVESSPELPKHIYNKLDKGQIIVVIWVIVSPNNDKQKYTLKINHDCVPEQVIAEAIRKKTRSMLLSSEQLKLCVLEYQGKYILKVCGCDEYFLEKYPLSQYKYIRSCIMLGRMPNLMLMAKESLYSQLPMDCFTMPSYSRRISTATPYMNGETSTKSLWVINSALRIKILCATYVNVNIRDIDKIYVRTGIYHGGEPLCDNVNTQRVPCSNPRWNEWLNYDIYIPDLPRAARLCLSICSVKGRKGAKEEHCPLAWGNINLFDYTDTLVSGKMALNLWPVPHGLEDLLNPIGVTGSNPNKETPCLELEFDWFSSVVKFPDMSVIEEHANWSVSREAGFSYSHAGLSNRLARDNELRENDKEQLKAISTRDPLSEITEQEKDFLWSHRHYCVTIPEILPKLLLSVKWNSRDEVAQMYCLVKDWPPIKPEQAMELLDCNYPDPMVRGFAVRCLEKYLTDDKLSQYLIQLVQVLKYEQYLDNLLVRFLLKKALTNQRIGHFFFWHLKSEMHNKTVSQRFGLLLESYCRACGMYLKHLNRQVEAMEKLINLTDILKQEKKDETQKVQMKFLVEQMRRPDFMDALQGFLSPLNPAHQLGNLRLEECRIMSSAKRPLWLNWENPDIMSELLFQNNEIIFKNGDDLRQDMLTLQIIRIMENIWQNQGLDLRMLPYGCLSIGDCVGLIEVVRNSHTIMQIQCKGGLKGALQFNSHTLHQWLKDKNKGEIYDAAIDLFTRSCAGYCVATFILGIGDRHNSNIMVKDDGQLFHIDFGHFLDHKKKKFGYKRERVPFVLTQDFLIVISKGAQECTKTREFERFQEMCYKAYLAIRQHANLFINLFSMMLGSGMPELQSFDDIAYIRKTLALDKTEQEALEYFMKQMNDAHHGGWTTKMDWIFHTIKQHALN
Chain of PI3K (P27986 whole entry partner): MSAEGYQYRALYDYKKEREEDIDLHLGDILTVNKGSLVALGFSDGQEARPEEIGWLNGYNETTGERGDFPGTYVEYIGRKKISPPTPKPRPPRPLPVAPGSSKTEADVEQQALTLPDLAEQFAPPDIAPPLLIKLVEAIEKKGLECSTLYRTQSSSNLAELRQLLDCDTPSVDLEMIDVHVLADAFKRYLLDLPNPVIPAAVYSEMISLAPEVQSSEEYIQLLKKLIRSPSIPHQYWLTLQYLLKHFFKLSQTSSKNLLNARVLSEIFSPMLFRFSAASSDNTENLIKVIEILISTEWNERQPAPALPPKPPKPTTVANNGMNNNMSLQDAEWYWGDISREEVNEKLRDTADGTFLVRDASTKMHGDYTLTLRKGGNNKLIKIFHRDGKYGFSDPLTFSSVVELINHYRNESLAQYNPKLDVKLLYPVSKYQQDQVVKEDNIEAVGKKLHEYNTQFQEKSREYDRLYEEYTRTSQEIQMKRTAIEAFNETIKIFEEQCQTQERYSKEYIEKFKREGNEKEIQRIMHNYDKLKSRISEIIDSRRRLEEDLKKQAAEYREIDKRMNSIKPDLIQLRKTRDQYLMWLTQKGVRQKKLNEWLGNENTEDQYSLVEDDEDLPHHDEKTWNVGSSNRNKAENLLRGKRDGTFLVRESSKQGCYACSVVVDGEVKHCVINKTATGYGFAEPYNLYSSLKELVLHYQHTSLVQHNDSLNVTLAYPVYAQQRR

**Q.** With `c1ccc(CN2CCC(n3ncc4c(N5CCOCC5)nc(-c5ccc6[nH]ccc6c5)nc43)CC2)nc1` [Compound 178] as the compound, how does the IC50 (breast line MDA468; Homo sapiens, 72 h) read?
**A.** 2100 nM

**Q.** What about the IC50 (PI3K) of the same compound?
**A.** 509 nM

**Q.** And the IC50 (prostate line LNCap; Homo sapiens, LNCaP, 72 h)?
**A.** 550 nM

**Q.** `O=C(Nc1ccc(-c2nc(N3CCOCC3)c3cnn(CC(F)(F)F)c3n2)cc1)Nc1cccnc1` [Compound 792, 1-{4-[4-morpholin-4-yl-1-(2,2,2-trifluoroethyl)-1H-pyrazolo[3,4-d]pyrimidin-6-yl]phenyl}-3-pyridin-3-ylurea] was tested. Which IC50 (breast line MDA468; Homo sapiens, 72 h) did it give?
**A.** < 27 nM

**Q.** What about the IC50 (PI3K) of the same compound?
**A.** 10 nM

**Q.** What about the IC50 (prostate line LNCap; Homo sapiens, LNCaP, 72 h) of the same compound?
**A.** < 27 nM

**Q.** How did the IC50 (breast line MDA468; Homo sapiens, 72 h) turn out when `Nc1cccc(-c2nc(N3CCOCC3)c3cnn(C4CCN(C(=O)c5cccnc5)CC4)c3n2)n1` [Compound 436, 6-{4-morpholin-4-yl-1-[1-(pyridin-3-ylcarbonyl)piperidin-4-yl]-1H-pyrazolo[3,4-d]pyrimidin-6-yl}pyridin-2-amine] was run?
**A.** 25000 nM

**Q.** And the IC50 (PI3K)?
**A.** 4990 nM

**Q.** And the IC50 (prostate line LNCap; Homo sapiens, LNCaP, 72 h)?
**A.** 9800 nM

**Q.** For `CCCOC(=O)N1CCC(n2ncc3c(N4CCOCC4)nc(-c4ccc(NC(=O)OC)cc4)nc32)CC1` [Compound 857, propyl 4-(6-{4-[(methoxycarbonyl)amino]phenyl}-4-morpholin-4-yl-1H-pyrazolo[3,4-d]pyrimidin-1-yl)piperidine-1-carboxylate], which IC50 (breast line MDA468; Homo sapiens, 72 h) is on record?
**A.** 5000 nM

**Q.** And the IC50 (PI3K)?
**A.** 2770 nM

**Q.** What about the IC50 (prostate line LNCap; Homo sapiens, LNCaP, 72 h) of the same compound?
**A.** 1600 nM

**Q.** For `CNC(=O)Nc1ccc(-c2nc(N3CCOCC3)c3cnn(C4CCN(C(=O)C(C)C)CC4)c3n2)cc1` [Compound 719, 1-{4-[1-(1-isobutyrylpiperidin-4-yl)-4-morpholin-4-yl-1H-pyrazolo[3,4-d]pyrimidin-6-yl]phenyl}-3-methylurea], which IC50 (breast line MDA468) is on record?
**A.** 250 nM

**Q.** And the IC50 (PI3K)?
**A.** 148 nM

**Q.** And the IC50 (prostate line LNCap)?
**A.** 150 nM

**Q.** Which results are given for `CC(C)C(=O)N1CCC(n2ncc3c(N4CCOCC4)nc(-c4ccc(NC(=O)Nc5ccccn5)cc4)nc32)CC1` [Compound 827, 1-{4-[1-(1-isobutyrylpiperidin-4-yl)-4-morpholin-4-yl-1H-pyrazolo[3,4-d]pyrimidin-6-yl]phenyl}-3-pyridin-2-ylurea]?
**A.** IC50 (breast line MDA468; Homo sapiens, 72 h): 16000 nM; IC50 (PI3K): 2260 nM; IC50 (prostate line LNCap; Homo sapiens, LNCaP, 72 h): 600 nM

**Q.** What does the source list for `O=C(NCCCO)Nc1ccc(-c2nc(N3CCOCC3)c3cnn(C4CCN(Cc5ccccc5)CC4)c3n2)cc1` [Example 269, 1-{4-[1-(1-benzylpiperidin-4-yl)-4-morpholin-4-yl-1H-pyrazolo[3,4-d]pyrimidin-6-yl]phenyl}-3-(3-hydroxypropyl)urea]?
**A.** IC50 (breast line MDA468; Homo sapiens, 72 h): 700 nM; IC50 (PI3K): 364 nM; IC50 (prostate line LNCap; Homo sapiens, LNCaP, 72 h): 80 nM

**Q.** With `CNCCOC(=O)N1CCC(n2ncc3c(N4CCOCC4)nc(-c4ccc(NC(=O)NC)cc4)nc32)CC1` [Compound 802, 2-(methylamino)ethyl 4-(6-{4-[(methylcarbamoyl)amino]phenyl}-4-morpholin-4-yl-1H-pyrazolo[3,4-d]pyrimidin-1-yl)piperidine-1-carboxylate] as the compound, how does the IC50 (breast line MDA468; Homo sapiens, 72 h) read?
**A.** 5500 nM

**Q.** What about the IC50 (PI3K) of the same compound?
**A.** 181 nM

**Q.** And the IC50 (prostate line LNCap; Homo sapiens, LNCaP, 72 h)?
**A.** 10000 nM

**Q.** For `Cc1ccc(CN2CCC(n3ncc4c(N5CCOCC5)nc(-c5cccc(O)c5)nc43)CC2)s1` [Example 18], which IC50 (breast line MDA468; Homo sapiens, 72 h) is on record?
**A.** 1300 nM

**Q.** What about the IC50 (PI3K) of the same compound?
**A.** 22 nM

**Q.** What about the IC50 (prostate line LNCap; Homo sapiens, LNCaP, 72 h) of the same compound?
**A.** 220 nM

**Q.** For `CONC(=O)Nc1ccc(-c2nc(N3CCOCC3)c3cnn(-c4ccccc4)c3n2)cc1` [Compound 295, 1-methoxy-3-[4-(4-morpholin-4-yl-1-phenyl-1H-pyrazolo[3,4-d]pyrimidin-6-yl)phenyl]urea], which IC50 (breast line MDA468; Homo sapiens, 72 h) is on record?
**A.** 5000 nM

**Q.** And the IC50 (PI3K)?
**A.** 404 nM

**Q.** What about the IC50 (prostate line LNCap; Homo sapiens, LNCaP, 72 h) of the same compound?
**A.** 1800 nM

**Q.** Which results are given for `COC(=O)N1CCC(n2ncc3c(N4CCOCC4)nc(-c4ccc(NC(=O)Nc5cccnc5F)cc4)nc32)CC1` [Compound 863, methyl 4-[6-(4-{[(2-fluoropyridin-3-yl)carbamoyl]amino}phenyl)-4-morpholin-4-yl-1H-pyrazolo[3,4-d]pyrimidin-1-yl]piperidine-1-carboxylate]?
**A.** IC50 (breast line MDA468; Homo sapiens, 72 h): 680 nM; IC50 (PI3K): 266 nM; IC50 (prostate line LNCap; Homo sapiens, LNCaP, 72 h): 170 nM

**Q.** How did the IC50 (breast line MDA468; Homo sapiens, 72 h) turn out when `O=C(NCCF)Nc1ccc(-c2nc(N3CCOCC3)c3cnn(C4CCNCC4)c3n2)cc1` [Compound 774, 1-(2-fluoroethyl)-3-[4-(4-morpholin-4-yl-1-piperidin-4-yl-1H-pyrazolo[3,4-d]pyrimidin-6-yl)phenyl]urea] was run?
**A.** 1050 nM

**Q.** And the IC50 (PI3K)?
**A.** 436 nM

**Q.** And the IC50 (prostate line LNCap; Homo sapiens, LNCaP, 72 h)?
**A.** 2300 nM

**Q.** Which results are given for `O=C(Nc1ccc(-c2nc(N3CCOCC3)c3cnn(C4CCN(CC(F)(F)F)CC4)c3n2)cc1)OCCO` [Compound 923, 2-hydroxyethyl (4-{4-morpholin-4-yl-1-[1-(2,2,2-trifluoroethyl)piperidin-4-yl]-1H-pyrazolo[3,4-d]pyrimidin-6-yl}phenyl)carbamate]?
**A.** IC50 (breast line MDA468; Homo sapiens, 72 h): 1200 nM; IC50 (PI3K): 737 nM; IC50 (prostate line LNCap; Homo sapiens, LNCaP, 72 h): 110 nM

**Q.** What does the source list for `CONC(=O)Nc1ccc(-c2nc(N3CCOCC3)c3cnn(C4CCN(C(=O)c5cccnc5)CC4)c3n2)cc1` [Compound 553, 1-methoxy-3-(4-{4-morpholin-4-yl-1-[1-(pyridin-3-ylcarbonyl)piperidin-4-yl]-1H-pyrazolo[3,4-d]pyrimidin-6-yl}phenyl)urea]?
**A.** IC50 (breast line MDA468; Homo sapiens, 72 h): 3000 nM; IC50 (PI3K): 1810 nM; IC50 (prostate line LNCap; Homo sapiens, LNCaP, 72 h): 800 nM

**Q.** With `CNCCNC(=O)Nc1ccc(-c2nc(N3CCOCC3)c3cnn(C4CCN(Cc5ccccc5)CC4)c3n2)cc1` [Example 300, 1-{4-[1-(1-benzylpiperidin-4-yl)-4-morpholin-4-yl-1H-pyrazolo[3,4-d]pyrimidin-6-yl]phenyl}-3-[2-(methylamino)ethyl]urea] as the compound, how does the IC50 (breast line MDA468; Homo sapiens, 72 h) read?
**A.** 200 nM

**Q.** What about the IC50 (PI3K) of the same compound?
**A.** 13 nM

**Q.** And the IC50 (prostate line LNCap; Homo sapiens, LNCaP, 72 h)?
**A.** 200 nM

**Q.** `N#CN=C(N)Nc1ccc(-c2nc(N3CCOCC3)c3cnn(C4CCN(C(=O)c5cccnc5)CC4)c3n2)cc1` [Example 411, 2-cyano-1-(4-{4-morpholin-4-yl-1-[1-(pyridin-3-ylcarbonyl)piperidin-4-yl]-1H-pyrazolo[3,4-d]pyrimidin-6-yl}phenyl)guanidine] was tested. Which IC50 (breast line MDA468; Homo sapiens, 72 h) did it give?
**A.** 12000 nM

**Q.** What about the IC50 (PI3K) of the same compound?
**A.** 344 nM

**Q.** What about the IC50 (prostate line LNCap; Homo sapiens, LNCaP, 72 h) of the same compound?
**A.** 20000 nM

**Q.** For `c1cc2cc(-c3nc(N4CCOCC4)c4cnn(C5CCC(N6CCCC6)CC5)c4n3)ccc2[nH]1` (stereo not drawn) [Compound 151], which IC50 (breast line MDA468; Homo sapiens, 72 h) is on record?
**A.** 2300 nM

**Q.** And the IC50 (PI3K)?
**A.** 1270 nM

**Q.** What about the IC50 (prostate line LNCap; Homo sapiens, LNCaP, 72 h) of the same compound?
**A.** 520 nM

**Q.** How did the IC50 (breast line MDA468; Homo sapiens, 72 h) turn out when `COC(=O)Nc1ccc(-c2nc(N3CCOCC3)c3cnn(C4CCN(C(=O)N5CCN(C)CC5)CC4)c3n2)cc1` [Compound 448, methyl [4-(1-{1-[(4-methylpiperazin-1-yl)carbonyl]piperidin-4-yl}-4-morpholin-4-yl-1H-pyrazolo[3,4-d]pyrimidin-6-yl)phenyl]carbamate] was run?
**A.** 1700 nM

**Q.** What about the IC50 (PI3K) of the same compound?
**A.** 725 nM

**Q.** What about the IC50 (prostate line LNCap; Homo sapiens, LNCaP, 72 h) of the same compound?
**A.** 900 nM

**Q.** `CNC(=O)Nc1ccc(-c2nc(N3CCOCC3)c3cnn(C4CCN(C(=O)c5ccc(C)cc5)CC4)c3n2)cc1` [Example 367, 1-methyl-3-(4-{1-[1-(4-methylbenzoyl)piperidin-4-yl]-4-morpholin-4-yl-1H-pyrazolo[3,4-d]pyrimidin-6-yl}phenyl)urea] was tested. Which IC50 (breast line MDA468; Homo sapiens, 72 h) did it give?
**A.** 100 nM

**Q.** What about the IC50 (PI3K) of the same compound?
**A.** 43 nM

**Q.** And the IC50 (prostate line LNCap; Homo sapiens, LNCaP, 72 h)?
**A.** 27 nM

**Q.** `CNC(=O)Nc1ccc(-c2nc(N3CCOCC3)c3cnn(C4CCN(C(=O)N5CCN(C)CC5)CC4)c3n2)cc1` [Compound 578, 1-methyl-3-[4-(1-{1-[(4-methylpiperazin-1-yl)carbonyl]piperidin-4-yl}-4-morpholin-4-yl-1H-pyrazolo[3,4-d]pyrimidin-6-yl)phenyl]urea] was tested. Which IC50 (breast line MDA468; Homo sapiens, 72 h) did it give?
**A.** 700 nM

**Q.** What about the IC50 (PI3K) of the same compound?
**A.** 71 nM

**Q.** What about the IC50 (prostate line LNCap; Homo sapiens, LNCaP, 72 h) of the same compound?
**A.** 400 nM

**Q.** What does the source list for `CNC(=O)Nc1ccc(-c2nc(N3CCOCC3)c3cnn(C4CCN(C(=O)c5cccc(Cl)c5)CC4)c3n2)cc1` [Example 358, 1-(4-{1-[1-(3-chlorobenzoyl)piperidin-4-yl]-4-morpholin-4-yl-1H-pyrazolo[3,4-d]pyrimidin-6-yl}phenyl)-3-methylurea]?
**A.** IC50 (breast line MDA468; Homo sapiens, 72 h): 100 nM; IC50 (PI3K): 53 nM; IC50 (prostate line LNCap; Homo sapiens, LNCaP, 72 h): 27 nM

Reference: patent US20080234262A1 (Wyeth, priority 2007, published 2008)
